We go through nine compounds from patent US20140171404A1, “Autotaxin inhibitors” (NOVARTIS AG, priority 2012, published 2014).

Structures are written as SMILES.

For one test, the target named is T1, Recombinant human ATX (Homo sapiens, UniProt Q13822).
T1 construct: made in house; host or cells: human embryonic kidney (HEK) cells
Nature of the test: Assessing ATX inhibition: released choline, Amplex Red fluorescence. The format is biochemical. To be noted: ATX 10 nM, LPC 18:1 10 μM, pre-incubated with ATX at 37° C. for 20 minutes; Table 1, exemplified compounds; read-out: IC50. The method, then:
LPC (oleoyl (18:1)) was purchased from Avanti Polar Lipids (Alabaster; AL) and solubilized in methanol to 20 mM. Amplex Red was obtained from Invitrogen Life Technologies (Paisley, UK) and dissolved in DMSO to 10 mM. Choline oxidase and horseradish peroxidase (HRP) were obtained from Sigma Aldrich (Dorset, UK) and dissolved in HBSS to 20 U/ml and 200 U/ml respectively. All reagents were stored at −20° C. in single use aliquots. All experimental measurements were performed in assay buffer made up immediately prior to use (HBSS, 0.01% BSA essentially fatty acid free).
Recombinant human ATX was prepared at Novartis (Basel, CH) in a human embryonic kidney (HEK) cell preparation, and stored in single use aliquots of […] (26 μM) stocks stored at −80° C.
All experimental measurements were performed in black 384 well polystyrene (low volume, round bottom, Corning (3676)) plates. PerkinElmer EnVision (Fluorescence Intensity/Absorbance Monochromator) or Tecan Infinite 200 PRO series plate reader was used to detect change in fluorescent intensity.
ATX activity was determined by measurement of released choline in reactions containing ATX (10 nM), choline oxidase (0.1 U/ml), HRP (100 U/ml), amplex red (50 μM) and LPC 18:1 (10 μM). Compounds of the invention were prepared as 10 point serial dilutions from 1 μM in duplicate and pre-incubated with ATX at 37° C. for 20 minutes prior to the addition of remaining reagents. The liberated choline was measured from changes in fluorescence intensity (λex 530 nm, λem 590 nm) of the product resurofin at 37° C. every 2 minutes over a 40-minute period. ATX activity was measured as a slope of the linear portion of the progress curve, typically between 14 to 24 minutes.
Slope data was exported to Graphpad prism (Graphpad software, San Diego, Calif.) where data was fitted to equation 1.
Y=Bottom+(Top−Bottom)/(1+10̂((Log IC50−X)*HillSlope)) Equation 1: […]
In general, IC50 refers to the concentration that inhibits the measured activity by half. As for `N#Cc1cc(COC(=O)N2CCC(NC(=O)CCCc3c[nH]nn3)CC2)cc(OC(F)(F)F)c1` [Example 70, 3-Cyano-5-(trifluoromethoxy)benzyl 4-(4-(1H-1,2,3-triazol-4-yl)butanamido)piperidine-1-carboxylate], the IC50 stood at 5 nM.
Still for that read-out and setting: under `Cc1cc(C#N)cc(COC(=O)N2CCC(NC(=O)CCCc3c[nH]nn3)CC2)c1` [Example 71, 3-Cyano-5-methylbenzyl 4-(4-(1H-1,2,3-triazol-4-yl)butanamido)piperidine-1-carboxylate] stands 13 nM; under `N#Cc1cc(COC(=O)N2CCC(NC(=O)CCCc3c[nH]nn3)CC2)cc(Cl)c1Cl` [Example 72, 3,4-Dichloro-5-cyanobenzyl 4-(4-(1H-1,2,3-triazol-4-yl)butanamido)piperidine-1-carboxylate], 7 nM.
Turning to `O=C(CCCc1c[nH]c(=O)s1)NC1CCN(C(=O)OCc2cc(Cl)cc(Cl)c2)CC1` [Example 73, 3,5-Dichlorobenzyl 4-(4-(2-oxo-2,3-dihydrothiazol-5-yl)butanamido)piperidine-1-carboxylate], the IC50 worked out at 2 nM.
In the case of `O=C(CCCc1nnn[nH]1)NC1CCN(C(=O)OCc2cc(Cl)cc(Cl)c2)CC1` [Example 74, 3,5-Dichlorobenzyl 4-(4-(1H-tetrazol-5-yl)butanamido)piperidine-1-carboxylate], the IC50 worked out at 21 nM.
As to `N#Cc1cc(Cl)cc(COC(=O)N2CCC(NCCCCc3c[nH]nn3)CC2)c1` [Example 75], the IC50 came to 29 nM.

Staying with this test, now noted: same assay; compounds outside the scope of the invention; read-out: IC50.
Turning to `O=C(NCC1CCN(C(=O)OCc2cc(Cl)cc(Cl)c2)CC1)c1cc(O)no1` [reference compound], the IC50 was more than 1000 nM.
Turning to `O=C(/C=C/c1c[nH]cn1)N1CCN(C2CCN(C(=O)CCc3ccc(C(F)(F)F)cc3)CC2)CC1` [reference compound], the IC50 was more than 5500 nM.
As to `O=C(CCCc1c[nH]nn1)NC1CCN(C(=O)OCc2ccccc2)CC1` [reference compound], the IC50 was 1390 nM.
